# Laboratory results from ChEMBL document CHEMBL1944620, “Discovery of non-oxime reactivators using an in silico pharmacophore model of oxime reactivators of OP-inhibited acetylcholinesterase” (Eur J Med Chem, 2012).
# Tested on: Anguilliformes
# Assay: Reactivation of DFP-inhibited eel AChE assessed as reactivation efficacy by spectrophotometry
row,Compound,Activity
1,O=[N+]([O-])c1ccc(OCC(O)CNCCNc2nccc(C(F)(F)F)n2)cc1 (centres undefined),212 mmol⁻¹ min⁻¹
2,O=C1CCC(=O)N1c1ccc(S(=O)(=O)N2CCN(c3nccc(C(F)(F)F)n3)CC2)cc1,48.4 mmol⁻¹ min⁻¹
3,OC(CNCCNc1nccc(C(F)(F)F)n1)COc1ccc(OC(F)(F)F)cc1 (centres undefined),34.4 mmol⁻¹ min⁻¹
4,FC(F)(F)c1ccnc(Oc2ccc(/C=N/NC(=S)Nc3cc(Cl)ccc3Cl)cc2)n1,53.6 mmol⁻¹ min⁻¹
5,OC(CNCCNc1nccc(C(F)(F)F)n1)CSc1ccc(F)cc1 (centres undefined),30.2 mmol⁻¹ min⁻¹
6,COc1cc(/C=N/NC(=O)c2ccc(N)cc2)cc(Br)c1OCc1ccccc1Cl,214 mmol⁻¹ min⁻¹
7,CCOC(=O)c1cc(C#N)c(C)nc1N1CCN(S(=O)(=O)c2ccccc2)CC1,24.7 mmol⁻¹ min⁻¹
8,COc1cccc(C(=O)Oc2c(Br)cc(Br)cc2/C=N/NC(=O)CNC(=O)c2ccc(OC)c(OC)c2)c1,56.2 mmol⁻¹ min⁻¹
9,COc1cc(/C=N/NC(=O)c2ccccc2NC(C)=O)cc(Br)c1OCc1ccccc1Cl,33.1 mmol⁻¹ min⁻¹
10,OC(CNCCNc1nccc(C(F)(F)F)n1)CSc1ccccc1 (centres undefined),91.1 mmol⁻¹ min⁻¹
11,COc1ccc(C2NCCc3c2[nH]c2ccc(OCc4ccccc4)cc32)cc1COc1c(Br)cc(Br)cc1Br (centres undefined),102 mmol⁻¹ min⁻¹
12,Cc1cc(C)cc(NC(=O)N2CCCN(c3ncccc3[N+](=O)[O-])CC2)c1,77.2 mmol⁻¹ min⁻¹
13,OC(CNCCNc1nccc(C(F)(F)F)n1)COc1ccc(Cl)c(Cl)c1 (centres undefined),75.2 mmol⁻¹ min⁻¹
14,C[n+]1ccccc1C=NO,2.61 mmol⁻¹ min⁻¹
15,OC1CCN(CC(O)COc2ccc(Cl)c(Cl)c2)CC1 (centres undefined),34.3 mmol⁻¹ min⁻¹
16,COc1cc(/C=N/NC(=O)c2cnc3ccccc3c2)cc(Br)c1OCc1ccccc1Cl,13 mmol⁻¹ min⁻¹
17,OC(CNCCNc1ccc(C(F)(F)F)cn1)COc1ccccc1 (centres undefined),20.6 mmol⁻¹ min⁻¹
18,S=C(NC1CCCCCCC1)N1CCCN(c2nc3ccc(Cl)cc3s2)CC1,26.7 mmol⁻¹ min⁻¹

row,Compound,Activity
1,OC(CNCCNc1nccc(C(F)(F)F)n1)COc1cccc(C(F)(F)F)c1 (centres undefined),38 mmol⁻¹ min⁻¹
2,COc1ccc(/C=C(/NC(=O)c2ccccc2)C(=O)N/N=C\c2cc(Br)c(OCc3ccccc3Cl)c(OC)c2)cc1,673 mmol⁻¹ min⁻¹
3,OC(CNCCNc1nccc(C(F)(F)F)n1)Cn1ccc2ccccc21 (centres undefined),57 mmol⁻¹ min⁻¹
4,O=C(Nc1cc(F)cc(F)c1)N1CCCN(c2ncc(C(F)(F)F)cc2Cl)CC1,80.7 mmol⁻¹ min⁻¹
5,Cc1nc(-c2ccccn2)nc(N2CCN(CCO)CC2)c1Cl,13.9 mmol⁻¹ min⁻¹
6,CC(C)(C)OC(=O)N1CCCN(C(=S)Nc2ccccc2N2CCOCC2)CC1,65.9 mmol⁻¹ min⁻¹
7,O=[N+]([O-])c1ccc(N2CCCN(C(=S)Nc3ccc(F)cc3Br)CC2)nc1,10.7 mmol⁻¹ min⁻¹
8,Cc1ccc(S(=O)(=O)NC(=O)NCCCNC(=O)OC(C)(C)C)cc1,76 mmol⁻¹ min⁻¹
9,O=C(Nc1ccc(Cl)cc1)N1CCCN(c2ccc(C(F)(F)F)cc2[N+](=O)[O-])CC1,101 mmol⁻¹ min⁻¹
10,OC(COc1ccc(Cl)c(Cl)c1)CN1CCN(c2nc3ccc(Cl)cc3s2)CC1 (centres undefined),25.1 mmol⁻¹ min⁻¹
11,CCOC(=O)c1cc(-c2nc(C(=O)NN)cs2)c(C)nc1C(F)(F)F,156 mmol⁻¹ min⁻¹
12,OC(CNCCNc1ccc(C(F)(F)F)cn1)CSc1ccc(F)cc1 (centres undefined),71.6 mmol⁻¹ min⁻¹
13,OC(CNCCNc1nccc(C(F)(F)F)n1)COc1ccccc1 (centres undefined),26.3 mmol⁻¹ min⁻¹
14,COc1ccc(CCNCC(O)Cn2ccc3ccccc32)cc1OC (centres undefined),79.6 mmol⁻¹ min⁻¹
15,FC(F)(F)c1ccnc(NCCNC(=S)NCc2ccco2)n1,11 mmol⁻¹ min⁻¹
16,CC(CO)(CO)NCC(O)COc1ccc(OC(F)(F)F)cc1 (centres undefined),73 mmol⁻¹ min⁻¹
17,COc1cc(C(=O)Oc2c(Br)cc(Br)cc2/C=N/NC(=O)C(O)(c2ccccc2)c2ccccc2)cc(OC)c1OC,39.9 mmol⁻¹ min⁻¹

# Tested on: Anguilliformes
# Assay: Reactivation of DFP-inhibited eel AChE by spectrophotometry relative to 2-PAM
row,Compound,Ratio
1,COc1cc(/C=N/NC(=O)c2cnc3ccccc3c2)cc(Br)c1OCc1ccccc1Cl,< 10
2,Cc1nc(-c2ccccn2)nc(N2CCN(CCO)CC2)c1Cl,< 10
3,O=[N+]([O-])c1ccc(N2CCCN(C(=S)Nc3ccc(F)cc3Br)CC2)nc1,< 10
4,FC(F)(F)c1ccnc(NCCNC(=S)NCc2ccco2)n1,< 10
